Strand notation (5' to 3'): a small letter for the sugar, then the base; units joined by * are phosphorothioate-linked, units joined directly phosphodiester-linked; [ ] holds rarer units or linkages, { } end groups; capitals alone tell only the bases. e = 2'-O-(2-methoxyethyl) (MOE); k = constrained ethyl (cEt); [5mC] = 5-methylcytosine; d = 2'-deoxy (DNA); m = 2'-O-methyl

The results in this text go back to patent publication US11214803B2, “Modulators of YAP1 expression” (Ionis Pharmaceuticals, Inc., priority 2019, dated 2022).

One series concerns Yap1 mRNA. As to the kind of experiment: Antisense inhibition of human Yap1 in SNU-449 cells by modified oligonucleotides, single dose (Example 5, RTS36584). The following applies: Table 39; SNU-449 cells, 10,000 cells per well, free uptake, 2,000 nM oligonucleotide, approx. 48 hours; RTS36584; normalized to RIBOGREEN; Yap1 mRNA relative to untreated control. It is filed as cell-based. In a few lines:
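Each modified oligonucleotide is applied by free uptake to SNU-449 cultures at 2,000 nM, and total RNA is harvested around 48 h later. Yap1 transcript, quantified with the RTS36584 set and corrected for RIBOGREEN RNA content, is given as % UTC. Asterisks mark sequences overlapping the amplicon.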
As to “1198384 (kT*dA*dT*dT*dA*dG*dA*dG*dT*dA*dT*kG*eT*kG*eG*k[5mC]; antisense) [Compound 1198384]”, the “YAP1 (% UTC)” value was found to be 6 % UTC.
For “1198391 (kG*dA*dG*dG*dT*dA*dT*dA*dA*d[5mC]*dT*kG*eG*kG*e[5mC]*kA) [Compound 1198391]”, the “YAP1 (% UTC)” value is listed as 29 % UTC.
Regarding “1198399 (kA*dG*d[5mC]*dA*d[5mC]*dT*dT*dT*dT*dA*d[5mC]*kA*eT*kT*eA*kG; antisense) [Compound 1198399]”, the “YAP1 (% UTC)” value was determined as 35 % UTC.
In the case of “1198372 (kA*dA*dT*dT*dG*dT*d[5mC]*dT*d[5mC]*dA*dT*kG*e[5mC]*k[5mC]*eT*kT; antisense) [Compound 1198372]”, the “YAP1 (% UTC)” value stood at 21 % UTC.
The same measure, in the same setting: with “1198419 (kA*dT*dT*d[5mC]*dA*dG*dA*dT*dT*dT*dA*kG*eG*kA*eT*kG; antisense) [Compound 1198419]” the figure was 78 % UTC.
Same read-out and setting: as for “1198435 (kA*dT*dG*dT*dA*dA*dT*dA*dT*dT*dG*k[5mC]*eA*kA*eT*k[5mC]; antisense) [Compound 1198435]”, the figure is 57 % UTC.

Still in this series, the particulars now being: Table 40 (separate experiment); SNU-449 cells, 10,000 cells per well, free uptake, 2,000 nM oligonucleotide, approx. 48 hours; RTS36584; normalized to RIBOGREEN; Yap1 mRNA relative to untreated control.
Take “1198443 (kT*dT*dA*dA*dA*dG*dT*dG*dT*dA*dT*kG*eT*k[5mC]*eA*kG; antisense) [Compound 1198443]”: the “YAP1 (% UTC)” value came out at 39 % UTC.
The same measure, in the same setting: as for “1198754 (kG*e[5mC]*kT*dT*dT*dG*dG*dA*dA*dG*dA*dT*e[5mC]*eT*kG*kA; antisense) [Compound 1198754]”, the figure is 23 % UTC.

Still in this series, the particulars now being: Table 41; SNU-449 cells, 10,000 cells per well, free uptake, 2,000 nM modified oligonucleotide, approximately 48 hours; RTS36584; normalized to RIBOGREEN; Yap1 mRNA relative to untreated control cells.
As to “1198636 (kA*kT*dA*dT*dG*dG*dA*dA*dA*dT*dT*dG*kT*e[5mC]*kT*e[5mC]; antisense) [Compound 1198636]”, the “YAP1 (% UTC)” value is recorded as 41 % UTC.
For “1198738 (kA*e[5mC]*kT*dG*dA*dG*dG*dT*dA*dT*dA*dA*e[5mC]*eT*kG*kG; antisense) [Compound 1198738]”, the “YAP1 (% UTC)” value was determined as 38 % UTC.
The same measure, in the same setting: with “1198632 (kG*kA*dA*dA*dT*dT*dG*dT*d[5mC]*dT*d[5mC]*dA*kT*eG*k[5mC]*e[5mC]; antisense) [Compound 1198632]” the figure was 21 % UTC; with “1198656 (kG*k[5mC]*dA*d[5mC]*dT*dT*dT*dT*dA*d[5mC]*dA*dT*kT*eA*kG*eG; antisense) [Compound 1198656]”, 11 % UTC.

The same series, now with this note: Table 42 (separate experiment); SNU-449 cells, 10,000 cells per well, free uptake, 2,000 nM modified oligonucleotide, approximately 48 hours; RTS36584; normalized to RIBOGREEN; Yap1 mRNA relative to untreated control cells.
As for “1198231 (kT*kT*dG*dG*dA*dA*dG*dA*dT*d[5mC]*dT*eG*eA*eA*kA*k[5mC]) [Compound 1198231]”, the “YAP1 (% UTC)” value is 73 % UTC.
On the same count and under the same terms, as for “1198684 (antisense kA*kA*d[5mC]*dT*d[5mC]*dT*dT*dA*dT*dA*dT*dG*kG*eT*kT*eT) [Compound 1198684]”, the figure is 75 % UTC.
Consider “1198648 (kA*kG*dG*dT*dA*dT*dA*dA*d[5mC]*dT*dG*dG*kG*e[5mC]*kA*eA) [Compound 1198648]”, for which the “YAP1 (% UTC)” value turned out to be 43 % UTC.
The same measure, in the same setting: with “1198221 (kT*kT*dA*d[5mC]*dA*dT*dT*dA*dG*dG*dA*eA*e[5mC]*eA*kA*kG) [Compound 1198221]” the figure was 95 % UTC.

Staying with this series, now noted: Table 43 experiment; SNU-449 cells, 10,000 cells per well, free uptake, 2,000 nM, approximately 48 hours; RTS36584; Yap1 mRNA normalized to RIBOGREEN, relative to untreated control cells.
Turning to “1198244 (kA*kG*dA*dT*dT*dT*dA*dG*dG*dA*dT*eG*e[5mC]*eA*kT*kG; antisense) [Compound 1198244]”, the “YAP1 (% UTC)” value is on record as 24 % UTC.
For “1198243 (kG*kA*dT*dT*dT*dA*dG*dG*dA*dT*dG*e[5mC]*eA*eT*kG*kG; antisense) [Compound 1198243]”, the “YAP1 (% UTC)” value worked out at 8 % UTC.
In the case of “1198270 (kT*kA*dA*dA*dG*dT*dG*dT*dA*dT*dG*eT*e[5mC]*eA*kG*kA; antisense) [Compound 1198270]”, the “YAP1 (% UTC)” value was found to be 52 % UTC.

Staying with this series, now noted: Table 44 experiment; SNU-449 cells, 10,000 cells per well, free uptake, 2,000 nM, approximately 48 hours; RTS36584; Yap1 mRNA normalized to RIBOGREEN, relative to untreated control cells.
For “1198533 (kT*kA*dA*dG*dG*dT*dT*dT*d[5mC]*d[5mC]*d[5mC]*eA*kG*eA*kT*eT; antisense) [Compound 1198533]”, the “YAP1 (% UTC)” value is 35 % UTC.
Still for that read-out and setting: with “1198538 (kA*k[5mC]*dT*dA*dA*dG*dT*dA*dA*dG*dG*eT*kT*eT*k[5mC]*e[5mC]; antisense) [Compound 1198538]” the figure was 29 % UTC; with “1198488 (antisense kG*kG*dA*dA*dG*dA*dT*d[5mC]*dT*dG*dA*eA*kA*e[5mC]*kT*e[5mC]) [Compound 1198488]”, 66 % UTC.

The same series, now with this note: Table 45; Yap1 mRNA as percent of untreated control, SNU-449 cells, single dose.
Turning to “1198943 (kT*k[5mC]*dT*dT*dA*dT*dA*dT*dG*dG*dT*kT*dT*kT*dG*kT; antisense) [Compound 1198943]”, the “YAP1 (% UTC)” value was 31 % UTC.
Turning to “1198916 (kA*k[5mC]*dT*dT*dT*dT*dA*d[5mC]*dA*dT*dT*kA*dG*kG*dA*kA; antisense) [Compound 1198916]”, the “YAP1 (% UTC)” value was found to be 59 % UTC.
Same read-out and setting: as for “1198927 (kT*kG*d[5mC]*dT*dT*dT*dG*dG*dA*dA*dG*kA*dT*k[5mC]*dT*kG; antisense) [Compound 1198927]”, the figure is 50 % UTC; as for “1198946 (kA*kA*d[5mC]*dT*d[5mC]*dT*dT*dA*dT*dA*dT*kG*dG*kT*dT*kT; antisense) [Compound 1198946]”, 72 % UTC.

Still in this series, the particulars now being: Table 46; Yap1 mRNA as percent of untreated control, SNU-449 cells, single dose.
Consider “1198882 (kA*kG*dT*dA*dA*dG*dG*dT*dT*dT*d[5mC]*k[5mC]*e[5mC]*kA*eG*kA; antisense) [Compound 1198882]”, for which the “YAP1 (% UT)” value is given as 56 % UT.
Regarding “1198822 (kT*kA*dT*dA*dA*d[5mC]*dT*dG*dG*dG*d[5mC]*kA*eA*kA*eT*kT; antisense) [Compound 1198822]”, the “YAP1 (% UT)” value is reported as 97 % UT.
The same measure, in the same setting: with “1198886 (kA*k[5mC]*dT*dA*dA*dG*dT*dA*dA*dG*dG*kT*eT*kT*e[5mC]*k[5mC]; antisense) [Compound 1198886]” the figure was 45 % UT.

Staying with this series, now noted: Table 48; Yap1 mRNA level relative to untreated control; modified oligonucleotides targeting SEQ ID NO.: 1 and 2.
“1198288 (kG*kA*kA*dA*dT*dT*dG*dT*d[5mC]*dT*d[5mC]*dA*kT*eG*k[5mC]*e[5mC]; antisense) [Compound 1198288]”: the “YAP1 (% UT)” value is given as 10 % UT.
On to “1076439 (k[5mC]*kT*kT*dA*dT*dA*dT*dG*dG*dT*dT*dT*dT*kG*kT*kG) [Compound 1076439]”, for which the “YAP1 (% UT)” value is 31 % UT.

The same series, now with this note: Table 49; Yap1 mRNA level relative to untreated control; modified oligonucleotides targeting SEQ ID NO.: 1 and 2.
In the case of “1198566 (antisense kT*kT*kT*dT*dA*d[5mC]*dA*dT*dT*dA*dG*dG*kA*kA*k[5mC]*eA) [Compound 1198566]”, the “YAP1 (% UT)” value stood at 83 % UT.
Still for that read-out and setting: with “1198576 (antisense kT*kT*kT*dG*dG*dA*dA*dG*dA*dT*d[5mC]*dT*kG*kA*kA*eA) [Compound 1198576]” the figure was 92 % UT; with “1198358 (kT*kT*kT*dA*dA*dA*dG*dT*dG*dT*dA*dT*kG*eT*k[5mC]*eA; antisense) [Compound 1198358]”, 15 % UT.
Still for that read-out and setting: with “1095565 (antisense kT*kG*kA*dG*dG*dT*dA*dT*dA*dA*d[5mC]*dT*kG*eG*kG*e[5mC]) [Compound 1095565]” the figure was 25 % UT.

Still in this series, the particulars now being: Table 50; Yap1 mRNA remaining as percent of untreated control (UT), SNU-449 cells, single dose.
In the case of “1198591 (antisense kA*kT*kT*d[5mC]*dA*dG*dA*dT*dT*dT*dA*dG*kG*kA*kT*eG) [Compound 1198591]”, the “YAP1 (% UT)” value is recorded as 106 % UT.
On the same count and under the same terms, as for “1197236 (antisense kT*kA*kT*dT*mA*dG*dA*dG*dT*dA*dT*dG*dT*kG*kG*k[5mC]) [Compound 1197236]”, the figure is 17 % UT; as for “1197294 (kG*k[5mC]*kA*d[5mC]*mU*dT*dT*dT*dA*d[5mC]*dA*dT*dT*kA*kG*kG; antisense) [Compound 1197294]”, 25 % UT.

The same series, now with this note: Table 51; Yap1 mRNA remaining as percent of untreated control (UT), SNU-449 cells, single dose.
Regarding “1197250 (antisense kT*kT*kG*dG*mA*dA*dG*dA*dT*d[5mC]*dT*dG*dA*kA*kA*k[5mC]) [Compound 1197250]”, the “YAP1 (% UT)” value is on record as 60 % UT.
For “1197254 (antisense kT*kT*kA*dG*mG*dA*dT*dG*d[5mC]*dA*dT*dG*dG*kT*kT*kT) [Compound 1197254]”, the “YAP1 (% UT)” value was determined as 51 % UT.
For the substance “1197275 (kA*kA*kG*dT*mA*dA*dG*dG*dT*dT*dT*d[5mC]*d[5mC]*k[5mC]*kA*kG) [Compound 1197275]”, the “YAP1 (% UT)” value was found to be 30 % UT.

Staying with this series, now noted: Table 52; Yap1 mRNA, modified oligonucleotides targeting SEQ ID NO: 1 and 2.
“1200846 (kG*kA*k[5mC]*dA*dA*mC*dT*d[5mC]*dT*dT*dA*dT*dA*kT*kG*kG; antisense) [Compound 1200846]”: the “YAP1 (% UT)” value is given as 38 % UT.
Regarding “1200826 (kG*kT*kG*d[5mC]*dT*mU*dT*dG*dG*dA*dA*dG*dA*kT*k[5mC]*kT; antisense) [Compound 1200826]”, the “YAP1 (% UT)” value is reported as 26 % UT.

The same series, now with this note: Yap1 mRNA, percent of untreated control; modified oligonucleotides targeting SEQ ID NO: 1 and 2; Table 47.
Take “1197227 (antisense kT*kT*kA*dG*dA*d[5mC]*dT*dA*dA*dG*dT*dA*dA*kG*kG*kT) [Compound 1197227]”: the “YAP1 (% UT)” value is given as 64 % UT.
Still for that read-out and setting: with “1074463 (kT*kA*kG*dA*dG*dT*dA*dT*dG*dT*dG*dG*d[5mC]*kA*kA*kT; antisense) [Compound 1074463]” the figure was 20 % UT.
